Assays:
in vivo = assay: in vivo; parameters: species or system Sprague-Dawley rats; conditions: Sprague-Dawley, rat; for Cmax_D / Vz_F_obs / AUC(0-inf): inhaled or intranasal; for AUC(0-inf): 2.73 ug
Experimental: Sixty animals (plus two spare animals/sex/group) were anesthetized and dosed via intratracheal instillation of test or control materials for five consecutive days. On the day after the last dose a terminal blood collection was performed for clinical pathology, after which animals were euthanized and a gross examination of all organs was performed by a board-certified veterinary pathologist. Select tissues were collected for histopathology. […] Terminal blood collection was performed at two designated time points per animal up to 24 hours after administration for toxicokinetic evaluation. TK animals were euthanized without further evaluation after the final blood collection. All animals were acclimated for a minimum of seven days prior to the dosing procedure. Animals underwent baseline observations and examinations prior to the initiation of the study, and clinical observations and body weight monitoring were performed throughout the in-life portion of the study. All animals received the same dose volume (0.3 mL) of either test or control materials. This maximum feasible dose (MFD) is constrained by the maximum volume that can be safely and reproducibly (over five days) instilled into lungs of rats weighing 250 g to 350 g, which was determined in preliminary toxicology studies to be 0.3 mL. Actual doses delivered are reported as both μg/kg body weight and μg/gm wet lung weight. The toxicity phase animals were 72-135 days of age at the time of initial dosing. Males weighed between 256.52 g and 307.50 g with a mean±standard deviation of 286.74±11.77 g, and females weighed between 250.46 g and 299.01 g with a mean±standard deviation of 260.64±10.34 g. The TK phase animals were 68-144 days of age at the time of initial dosing. Males weighed between 261.23 g and 316.19 g; females weighed between 250.06 g and 280.32 g.
For toxicokinetic experiments, rats were anesthetized with combination of ketamine 40 mg/kg to 200 mg/kg and xylazine 1 mg/kg to 7 mg/kg, intraperitoneally (IP), to effect for dosing procedures, and dosed intratracheally with liothyronine sodium injection as previously described. Depending on the duration of time between dosing and the first or second blood collection time points, animals either had blood collected while still anesthetized under the injectable anesthetics, or if recovered, they were anesthetized with Isoflurane 2-5% and oxygen 1-1.5 L/minute by inhalation anesthesia via nose cone, as needed, to maintain adequate anesthesia depth (assessed by toe pinch). Topical proparicaine anesthetic ophthalmic solution was applied to each eye prior to performing the first blood collection and allowed time to take effect. Collection of serum samples for TK analysis was as described for serum chemistry samples above, and samples were stored at ≤−70° C. until assayed. Animals were euthanized with EUTHASOL (Virbac Corp., Fort Worth, TX)≥86 mg/kg IP to effect following the final blood collection.
For assessment of serum T3 levels samples were sent to the Fairview University of Minnesota Medical Center East Bank Diagnostic Laboratory for analysis, a clinical laboratory certified by CLIA and CAP. Prior to sending serum samples to the analytical lab each sample was diluted 1:4 or 1:8 in normal (0.9%) saline. […] Samples were analyzed by a chemiluminescence assay for total triiodothyronine (T3).
Toxicokinetic parameters were estimated using Phoenix 64 WinNonlin pharmacokinetic software version 7.0. (Pharsight Corp., Mountain View, CA). A non-compartmental (NCA) approach consistent with the route of administration was used for parameter estimation. […] Whenever possible, mean concentrations were derived from three animals/gender/time point. Parameters were estimated using sampling times relative to the start of each dose administration. The raw data was converted to ng/ml of serum by dividing the […] values by 100 and then multiplying by the dilution factor for that sample, either 4 or 8. […]

[1] = Preliminary dose-finding studies, intravenous vs intratracheal 3.0 μg neutral pH T3; format: in vivo, rats
Experimental: FIG. 6. […] A single dose of T3 was administered intravenously (diamonds) or via intratracheal instillation (squares). Samples were analyzed for total T3 using a chemiluminescence assay.

Nrf2 = assay: Western blot of Nrf2 protein in RLE-6TN cells under hyperoxia; format: cell-based, rat; conditions: 24 hours hyperoxia, T3 10^−6 M
From the text: FIG. 9. […] The cells were then collected for Western Blotting analysis. (A) Cellular total protein of Nrf2. (B) Nuclear Nrf2.
FIG. 12. T3-induced increase in Nrf2 and HO-1 protein via PI3K in hyperoxia. (A) Western Blot and densitometry data for total Nrf2. (B) Western Blot and densitometry data for cytoplasmic Nrf2. (C) Western Blot and densitometry data for nuclear Nrf2.
At the end of the hyperoxia exposure period, the viable cells were counted by trypan blue dye exclusion.
Nuclei were extracted with NE-PER nuclear and cytoplasmic extraction reagents kit (Thermo Fisher Scientific, Inc., Waltham, MA) following the manufacturer's instruction.
(§1) The cells were lysed in lysis buffer containing 20 mM Tris HCl (pH 7.5), 150 mM NaCl, 1 mM EDTA, 1 mM EGTA, 1% (vol/vol) Triton X-100 with protease inhibitors (1 mM PMSF, 2 μg/ml pepstatin, and 10 μg/ml each of aprotinin and leupeptin), and phosphatase inhibitors (2.5 mM sodium pyrophosphate, 1 mM β-glycerophosphate, and 1 mM Na3VO4). The lysate was drawn 10 times through a 25-gauge needle on ice for further lysis and then was centrifuged at 13,000 rpm for 15 minutes at 4° C. The supernatant was collected, and the protein concentrations were determined by use of the BCA protein assay kit (Sigma-Aldrich, St. Louis, MO). Immediately after this step, equal amounts of protein were subjected to Western blotting analysis.

Akt = Akt phosphorylation in RLE-6TN cells under hyperoxia; format: cell-based, rat; conditions: 24 hours hyperoxia, T3 added for 20 minutes; vs room air control and hyperoxia alone
Experimental: as §1

[2] = Phase I/II trial of instilled T3: serum thyroid hormone levels; format: in vivo, human
From the text: Ten milliliters (mls) of reformulated, pH-adjusted commercial intravenous T3 solution (Par Pharmaceutical, Navi Mumbai, India; and XGen Pharmaceuticals DJB, Inc., Horseheads, NY) was instilled directly into the airspaces via a suction catheter in the endotracheal tube of intubated patients with ARDS. […] The study was approved by the Essentia IRB (Duluth, MN) and listed on ClinicalTrials.gov (NCT04115514).
Subsequent doses were given on days 4, 6, and 7. […] Despite Klebsiella aerogenes positive sputum culture, they were extubated on ventilator day 11. After discharge from the ICU, they had some confusion and delirium.

[3] = single oral dose of 50 micrograms; cited from earlier work
[4] = tested on: rat lung mucosa and airspaces; assay: Preliminary studies: intratracheal instillation of liothyronine sodium without pH adjustment; conditions: pH of >10.0 as supplied commercially
Experimental: Using aseptic technique, vials of liothyronine sodium were opened and the entire contents were transferred into sterile 1.5 mL Eppendorf tubes. 80-90 μL of 1.0 N HCl was added to the tube and gently vortexed, and the pH was measured using pH test strips (pH 4.5 to 10.0, Ricca Chemical Co., Arlington, TX). Additional HCl was titrated in gradually, as needed, until the pH was in the desired range. […] This solution was stored at 4° C. and used for up to 26 hours after pH adjustment procedure.

[5] = 3.0 μg T3 intratracheally vs 3.0 μg intravenously

Structure (SMILES): N[C@@H](Cc1cc(I)c(Oc2ccc(O)c(I)c2)c(I)c1)C(=O)O [T3, triiodothyronine]
- Cl_F_obs (in vivo; female): 30.10 mL/h
- HL_Lambda_z (in vivo; female): 2.85 h
- Cmax_D (in vivo; female): 6.12 ng/mL/µg
- Vz_F_obs (in vivo; female): 123.60 mL
- AUC(0-inf) (in vivo; female): 89.7 ng·h/mL
- Cl_F_obs (in vivo; male): 74.29 mL/h
- HL_Lambda_z (in vivo; male): 3.17 h
- Cmax_D (in vivo; male): 2.44 ng/mL/µg
- Vz_F_obs (in vivo; male): 339.44 mL
- AUC(0-inf) (in vivo; male): 36.3 ng·h/mL
- AUC after intratracheal relative to intravenous administration [1, 5]: ⅕
- T3 Cmax after intratracheal relative to intravenous administration [1, 5]: 1/17
- Acute effects on physiologic parameters (respiratory rate, O2 saturation, heart rate) ([1]; single intravenous delivery or five days of intratracheal delivery of 3.0 μg neutral pH T3): no acute effects on physiologic parameters
- Total cellular and nuclear Nrf2 protein (Nrf2): significantly increased both total cellular and nuclear Nrf-2 protein expression
- Phosphorylation of Akt at Ser473 (Akt): augmented phosphorylation of Akt at Ser473
- Serum free T3 levels ([2]; Patient 1, four 50-μg daily instilled doses, all days of treatment): 1.9 to 3.4 pg/mL
- Serum free T3 levels ([2]; Patient 2, escalating daily instilled doses 5, 10, 25, 50 μg): <1.5 to 2.2 pg/mL
- Time of peak serum concentration [3]: 2.5 h
- Time of physiologic effect of increased heart rate [3]: five hours
- Tolerability of intratracheal instillation [4]: do not tolerate
